Measurements: US11390828B2, “Catnip cultivar ‘CR9’” (RUTGERS, THE STATE UNIVERSITY OF NEW JERSEY, priority 2016, dated 2022)

How the values were obtained:
Aedes aegypti = assay: Dose dependent one-choice mosquito landing rate inhibition assay; type: in vivo
Procedure: (§1) Nepeta cataria plants were evaluated as insect repellents against Aedes aegypti and Anopholes gambiae mosquitoes in a landing rate inhibition assay against DEET as shown in FIGS. 4 and 5. A dose dependent curve was generated for all treatments and a time course analysis was performed with a crude essential oil sample. […] Between two and four hours the ability to generate 95% repellency diminished.
Mosquito eggs were reared in water at 27° C. with 80% humidity and the mosquitoes were transferred during the rearing process with an eye dropper. The A. aegypti eggs were placed in a container holding water and once hatched and formed into larvae, they were separated from the unhatched eggs and placed into fresh water. General fish food tablets were used as the energy source for the maturing mosquitoes. As the mosquitoes began to form into pupae, they were separated from the smaller less developed larvae and placed into fresh water. This container was then placed into a Bug Dorm Cage where the pupae were allowed to mature into adults. […]
Repellency was determined by a one-choice landing assay that uses the amount of mosquito landings to calculate the overall effectiveness of the candidate repellent. […] Time lapse photography recorded one image every five seconds. […]

Anopholes gambiae = assay: Dose dependent mosquito landing rate inhibition assay; type: in vivo; settings: treatment at 1.00%, FIG. 5
Procedure: as §1
Repellency was determined by a one-choice landing assay that uses the amount of mosquito landings to calculate the overall effectiveness of the candidate repellent. Twenty, one day starved adult female Aedes aegypti mosquitoes were aspirated into a Bug Dorm Cage. Testing was performed between 10:00 am and 4:00 pm PST during A. aegypti's host seeking hours. A HotHands® heat pack was used as the heat source to attract the mosquitoes in the upper region of the back panel. Treatments were applied to a Whatman® filter paper and used to wrap the heat source. A control of just acetone was applied to the filter papers before and after each treatment to ensure reproducibility in mosquito behavior. […] Time lapse photography recorded one image every five seconds. A custom was used to count the mosquitoes automatically through the open source image processing software ImageJ.

[1] = test system: two species of mosquitoes; settings: cited from earlier work
harvester ants = settings: body contact; cited from earlier work
[2] = test system: house dust mite species, poultry mites; settings: in vivo; cited from earlier work
house and stable flies = settings: in vivo; cited from earlier work

With `CCN(CC)C(=O)c1cccc(C)c1` [DEET] the “decrease in landings of mosquitoes (repellency)” value (Aedes aegypti; treatment at 1.00% on filter paper, FIG. 4) was over 95% and the “decrease in landings of mosquitoes (repellency)” value (Anopholes gambiae) was over 95%.

For `CC1COC(=O)C2C(C)CCC12` (centres unmarked) [dihydronepetalactone 2], the “duration of complete protection” value ([1]; human subjects) is given as “up to five” and the “repelling efficacy compared with DEET” value ([1]; two species of mosquitoes) is given as “as effective at repelling two species of mosquitoes as DEET”.

In the case of Z, E nepetalactone, the “speed of mortality compared with the other nepetalactones in catnip” value (harvester ants) is given as “mortality was achieved faster”, the repellency [2] is given as “efficient in repelling” and the repellency (house and stable flies) is given as “significant repellency”. For the same compound, the “repellency percentage compared between treatments” value (Aedes aegypti; treatment at 0.10%) was “highest repellency percentage”.
